Data from patent US20220411362A1, “DITERPENOID COMPOUNDS THAT ACT ON PROTEIN KINASE C (PKC)” (K-Gen, Inc., priority 2019, published 2022).
Read-outs that look alike come from different tables or passages of the source.

Columns and labels:
[1] = test system: A549 non-small cell lung cancer cell line; assay: Proliferation of A549 (CellTiter Glo); type: cell-based; details: read-out: IC50 μM (A549 Cell Line)
Procedure: The diterpenoid compounds were tested in A549, a non-small cell lung cancer cell line harboring a K-Ras activating mutation. Briefly, A549 cells at a density of 1,000 cells/well were seeded in 96-well plates and incubated at 37° C. for 24 hours. A series of different concentrations of compound stocks (500×) were prepared by 3-fold serial dilution in DMSO. These compounds were further diluted in culture media and then added to cells so that the final DMSO concentration was not exceeding 0.25%. After 96 hours of incubation, 50 μL of CellTiter Glo reagent (Promega) was added to each well and luminescence was measured after 10 minutes using EnVision (PerkinElmer). Luminescence from cells treated with DMSO alone was set as Max and % of inhibition was calculated as follows: Inhibition %=(Max−Sample value)/Max×100. Data was analyzed using XL-fit software (ID Business Solutions Ltd.) and IC50, relative IC50, and % of top inhibition was calculated. Some of the compounds in this disclosure were very potent in blocking proliferation of A549 lung cancer cells at low nM range. In addition, potency of inhibiting A549 proliferation correlated well with its binding affinity to PKCs for this series of compounds. In other words, higher affinity binders had stronger inhibitory effects on A549 proliferation. This further support the notion that activation, rather than inhibition, of certain PKC isoforms is required to block proliferation of cancer cells, some of which may harbor K-Ras mutations. This is in sharp contrast to previous literature and common belief that inhibition of PKC is necessary to block cancer cell growth (Kang, 2014, New Journal of Science, 2014:1-36). Data presented here is in agreement with recent findings that many loss-of-function but not gain-of-function mutations of PKC isoforms have been identified in many human cancers (Antal et al., 2015, Cell, 160:489-502).

C1b domain of human PKCδ = target: T1, C1b domain of human PKCδ (Homo sapiens, UniProt Q05655); assay: Competitive 3H-PDBu binding to C1b domain of PKCδ; details: 3H-PDBu competition
T1 construct: Genes encoding C1b domains of human PKCα, δ, ε, θ, and PKD1 (PKCμ) were synthesized; made in house; host or cells: E. coli BL21(DE3)
T1 sequence (Q05655 230-280 limits assumed): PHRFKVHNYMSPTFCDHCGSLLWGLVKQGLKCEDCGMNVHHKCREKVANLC
Procedure: (§1) Compounds described in this disclosure were tested for binding affinity to C1b domain of PKC isoforms. Compound binding affinity to C1b domain of PKC isoforms was derived from competitive binding assay using radioactive tracer ^3H-PDBu and recombinant GST-C1b or full-length of human PKC proteins based on modified procedures from Methods in Molecular Biology, vol.
(§2) Genes encoding C1b domains of human PKCα, δ, ε, θ, and PKD1 (PKCμ) were synthesized and inserted into pGEX-2TK or pGEX-4T1 vectors for expression and production of GST-C1b proteins in E. coli BL21(DE3) via IPTG induction. The target proteins were purified by glutathione sepharose 4B and followed by ion exchange chromatography if needed to achieve purity >70%. Aliquots of the purified proteins were stored at −80 degree for binding assay (storage buffer: 20 mM Tris pH 8.0, 200 mM NaCl, 10% glycerol, 1 mM DTT).
(§3) The plate was incubated at 37° C. on a shaker at 300 rpm for 10 minutes and then put on ice for 20 minutes. […] The bottom of the filter plate was sealed and 50 μL of MicroScint-20 (PerkinElmer) cocktail was added to each well. ^3H-PDBu trapped in each well was counted using PerkinElmer MicroBeta2 Reader. Data were analyzed using GraphPad Prism5 with the model “log(inhibitor) vs. response-variable slope” to fit the IC50, and then IC50 was transformed to Ki using Cheng-Prusoff equation: Ki=IC50/(1+added radio ligand/Kd). Kd is the binding affinity of each protein preparation to ^3H-PDBu, determined experimentally.

C1b domain of human PKCα = target: T2, C1b domain of human PKCα (Homo sapiens, UniProt P17252); assay: biochemical; type: binding; details: 3H-PDBu competition
T2 construct: Genes encoding C1b domains of human PKCα, δ, ε, θ, and PKD1 (PKCμ) were synthesized; made in house; host or cells: E. coli BL21(DE3)
Procedure: as §1, §2
The plate was incubated at 37° C. on a shaker at 300 rpm for 10 minutes and then put on ice for 20 minutes. […] The bottom of the filter plate was sealed and 50 μL of MicroScint-20 (PerkinElmer) cocktail was added to each well. ^3H-PDBu trapped in each well was counted using PerkinElmer MicroBeta2 Reader. […] Kd is the binding affinity of each protein preparation to ^3H-PDBu, determined experimentally.

[2] = target: T3, C1b domain of human PKD1 (PKCμ) (Homo sapiens, UniProt Q15139); assay: biochemical; type: binding
T3 construct: Genes encoding C1b domains of human PKCα, δ, ε, θ, and PKD1 (PKCμ) were synthesized; made in house; host or cells: E. coli BL21(DE3)
T3 sequence (Q15139 270-320 limits assumed): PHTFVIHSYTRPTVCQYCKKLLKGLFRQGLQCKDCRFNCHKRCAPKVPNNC
Procedure: as §1, §2, §3

[3] = Homo sapiens, A549, 96 hours incubation, CellTiter Glo

Compound	IC50 [1, 3]	Ki (C1b domain of human PKCδ; Ki PKCδ)	Ki (C1b domain of human PKCα; Ki PKCα)	IC50 ([1]; Homo sapiens, A549, 96 h)	Ki [2]	Ki (C1b domain of human PKCδ; read-out: Ki PKCδ)	Ki (C1b domain of human PKCα; read-out: Ki PKCα)	IC50 ([1]; A549, 96 hours incubation, CellTiter Glo)	Ki ([2]; read-out: Ki PKD1/PKCμ)
CC1=C[C@H]2[C@@]3(O)[C@H](C)C[C@]4(OC(=O)[C@H](N)CCCCCCc5ccccc5)[C@H]([C@@H]3C=C(COC(=O)[C@@H](N)C(C)C)C[C@]2(O)C1=O)C4(C)C [K101-C134801C2003]	0.03 to 0.06 µM	–	–	–	–	–	–	–	–
CC1=C[C@H]2[C@@]3(O)[C@H](C)C[C@]4(OC(=O)[C@@H](N)C56CC(F)(C5)C6)[C@H]([C@@H]3C=C(CO)C[C@]2(O)C1=O)C4(C)C [Compound K101-C137302]	10 to 30 µM	–	–	–	–	–	–	–	–
CC1=C[C@H]2[C@@]3(O)[C@H](C)C[C@]4(OC(=O)CCCCCCCCCCCC(=O)O)[C@H]([C@@H]3C=C(CO)C[C@]2(O)C1=O)C4(C)C [Compound K101-C1335]	–	200 to 400 nM	> 8000 nM	10 to 30 µM	–	–	–	–	–
CC1=C[C@H]2[C@@]3(O)[C@H](C)C[C@]4(OC(=O)C[C@H](N)c5ccccc5)[C@H]([C@@H]3C=C(CO)C[C@]2(O)C1=O)C4(C)C [Compound K101-C1343]	–	30 to 60 nM	1000 to 2000 nM	1 to 2 µM	1 to 30 nM	–	–	–	–
CSCC[C@H](N)C(=O)O[C@@]12C[C@@H](C)[C@@]3(O)[C@@H](C=C(CO)C[C@]4(O)C(=O)C(C)=C[C@@H]34)[C@@H]1C2(C)C [Compound K101-C1338]	–	100 to 200 nM	2000 to 4000 nM	5 to 10 µM	30 to 60 nM	–	–	–	–
CCCC[C@H](N)C(=O)O[C@@]12C[C@@H](C)[C@@]3(O)[C@@H](C=C(CO)C[C@]4(O)C(=O)C(C)=C[C@@H]34)[C@@H]1C2(C)C [Compound K101-C1317]	–	1 to 30 nM	800 to 1000 nM	0.6 to 1 µM	< 5 nM	–	–	–	–
CC1=C[C@H]2[C@@]3(O)[C@H](C)C[C@]4(OC(=O)[C@H](N)C56CC(F)(C5)C6)[C@H]([C@@H]3C=C(CO)C[C@]2(O)C1=O)C4(C)C [Compound K101-C137301]	10 to 30 µM	–	–	–	–	–	–	–	–
CC1=C[C@H]2[C@@]3(O)[C@H](C)C[C@]4(OC(=O)[C@@H](N)Cc5c[nH]c6ccccc56)[C@H]([C@@H]3C=C(CO)C[C@]2(O)C1=O)C4(C)C [Compound K101-C1340]	–	1 to 30 nM	200 to 400 nM	10 to 30 µM	5 to 10 nM	–	–	–	–
CC1=C[C@H]2[C@@]3(O)[C@H](C)C[C@]4(OC(=O)[C@@H](N)C/C=C/c5ccccc5)[C@H]([C@@H]3C=C(CO)C[C@]2(O)C1=O)C4(C)C [Compound K101-C1331]	–	–	–	–	–	5 to 10 nM	100 to 200 nM	0.06 to 0.1 µM	< 5 nM
CC1=C[C@H]2[C@@]3(O)[C@H](C)C[C@]4(OC(=O)[C@H](N)CCc5ccc(C(F)(F)F)cc5)[C@H]([C@@H]3C=C(CO)C[C@]2(O)C1=O)C4(C)C [Compound K101-C135601]	–	30 to 60 nM	1000 to 2000 nM	0.2 to 0.6 µM	1 to 30 nM	–	–	–	–
CC1=C[C@H]2[C@@]3(O)[C@H](C)C[C@]4(OC(=O)[C@@H](N)C56CC(C(F)(F)F)(C5)C6)[C@H]([C@@H]3C=C(CO)C[C@]2(O)C1=O)C4(C)C [Compound K101-C1375]	0.06 to 0.1 µM	–	–	–	–	–	–	–	–
CC1=C[C@H]2[C@@]3(O)[C@H](C)C[C@]4(OC(=O)[C@@H](N)CC5CCCC5)[C@H]([C@@H]3C=C(CO)C[C@]2(O)C1=O)C4(C)C [Compound K101-C1332]	–	5 to 10 nM	100 to 200 nM	0.1 to 0.2 µM	5 to 10 nM	–	–	–	–
CC1=C[C@H]2[C@@]3(O)[C@H](C)C[C@]4(OC(=O)C[C@@H](N)CCc5ccccc5)[C@H]([C@@H]3C=C(CO)C[C@]2(O)C1=O)C4(C)C [Compound K101-C1350]	–	1 to 30 nM	400 to 800 nM	0.6 to 1 µM	< 5 nM	–	–	–	–
CSC[C@H](N)C(=O)O[C@@]12C[C@@H](C)[C@@]3(O)[C@@H](C=C(CO)C[C@]4(O)C(=O)C(C)=C[C@@H]34)[C@@H]1C2(C)C [Compound K101-C1339]	–	200 to 400 nM	4000 to 6000 nM	5 to 10 µM	–	–	–	–	–
CC1=C[C@H]2[C@@]3(O)[C@H](C)C[C@]4(OC(=O)CCc5cnn(C)c5)[C@H]([C@@H]3C=C(CO)C[C@]2(O)C1=O)C4(C)C [Compound K101-C1323]	–	200 to 400 nM	> 8000 nM	2 to 5 µM	100 to 200 nM	–	–	–	–
CC1=C[C@H]2[C@@]3(O)[C@H](C)C[C@]4(OC(=O)[C@@H](N)CC5CCC5)[C@H]([C@@H]3C=C(CO)C[C@]2(O)C1=O)C4(C)C [Compound K101-C1325]	–	30 to 60 nM	4000 to 6000 nM	1 to 2 µM	30 to 60 nM	–	–	–	–
CC1=C[C@H]2[C@@]3(O)[C@H](C)C[C@]4(OC(=O)[C@H](O)Cc5ccccc5)[C@H]([C@@H]3C=C(CO)C[C@]2(O)C1=O)C4(C)C [Compound K101-C1355]	–	100 to 200 nM	–	2 to 5 µM	30 to 60 nM	–	–	–	–
CCCCCCCCCCCCCCCCCCC(CC(=O)O[C@@]12C[C@@H](C)[C@@]3(O)[C@@H](C=C(CO)C[C@]4(O)C(=O)C(C)=C[C@@H]34)[C@@H]1C2(C)C)C(=O)O (stereo partly shown) [Compound K101-C1352]	–	200 to 400 nM	4000 to 6000 nM	5 to 10 µM	200 to 400 nM	–	–	–	–
CC1=C[C@H]2[C@@]3(O)[C@H](C)C[C@]4(OC(=O)[C@@H](O)Cc5ccccc5)[C@H]([C@@H]3C=C(CO)C[C@]2(O)C1=O)C4(C)C [Compound K101-C1354]	–	30 to 60 nM	1000 to 2000 nM	0.2 to 0.6 µM	1 to 30 nM	–	–	–	–
CC1=C[C@H]2[C@@]3(O)[C@H](C)C[C@]4(OC(=O)CCCCCCCCCCC(=O)O)[C@H]([C@@H]3C=C(CO)C[C@]2(O)C1=O)C4(C)C [Compound K101-C1334]	–	400 to 800 nM	> 8000 nM	10 to 30 µM	30 to 60 nM	–	–	–	–
CC1=C[C@H]2[C@@]3(O)[C@H](C)C[C@]4(OC(=O)[C@@H](N)C5Cc6ccccc6C5)[C@H]([C@@H]3C=C(CCl)C[C@]2(O)C1=O)C4(C)C [K101-C1329-Cl]	0.06 to 0.1 µM	–	–	–	–	–	–	–	–
CC1=C[C@H]2[C@@]3(O)[C@H](C)C[C@]4(OC(=O)[C@@H](N)CC(C)(C)C)[C@H]([C@@H]3C=C(CO)C[C@]2(O)C1=O)C4(C)C [Compound K101-C1328]	–	1 to 30 nM	200 to 400 nM	0.2 to 0.6 µM	< 5 nM	–	–	–	–
CC1=C[C@H]2[C@@]3(O)[C@H](C)C[C@]4(OC(=O)CCc5c[nH]c6ncccc56)[C@H]([C@@H]3C=C(CO)C[C@]2(O)C1=O)C4(C)C [Compound K101-C1322]	–	30 to 60 nM	800 to 1000 nM	2 to 5 µM	5 to 10 nM	–	–	–	–
CN[C@@H](CC1CCCCC1)C(=O)O[C@@]12C[C@@H](C)[C@@]3(O)[C@@H](C=C(CO)C[C@]4(O)C(=O)C(C)=C[C@@H]34)[C@@H]1C2(C)C [Compound K101-C1364]	–	1 to 30 nM	200 to 400 nM	0.2 to 0.6 µM	–	–	–	–	–
CC1=C[C@H]2[C@@]3(O)[C@H](C)C[C@]4(OC(=O)[C@@H](N)CC5CC5)[C@H]([C@@H]3C=C(CO)C[C@]2(O)C1=O)C4(C)C [Compound K101-C1330]	–	–	1000 to 2000 nM	2 to 5 µM	30 to 60 nM	–	–	–	–
CC1=C[C@H]2[C@@]3(O)[C@H](C)C[C@]4(OC(=O)[C@@H](N)CCc5ccccc5)[C@H]([C@@H]3C=C(CO)C[C@]2(O)C1=O)C4(C)C [Compound K101-C135602]	–	1 to 30 nM	200 to 400 nM	–	–	–	–	–	–
